From patent US20230286973A1, “PROTEIN SECRETION INHIBITORS” (KEZAR LIFE SCIENCES, priority 2020, published 2023) come the findings set out here.

Data set [1] relates to IL-2-FL/Gaussia Luciferase. The experiment in a line: Dox Induced IL2-FL-Gluc Assay. It counts as cell-based. To be noted: for IC50: 24 hr Dox induction, 293FRT/TO cells, read-out: 24 hr Dox Inducible IL2FLGluc 293FRT/TO: Mean IC50; for 24 hr Dox Inducible IL2FLGluc 293FRT/TO: IL2/PD1: ratio of IL2FLGluc IC50 to PD1ssGluc IC50. The gist of the method:
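Doxycycline induces an IL-2(1-153)–Gaussia luciferase fusion in a stable Flp-In 293 T-REx line. Compound exposure runs alongside induction at 37° C.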

For data set [2], the system named is PD1-ss+10aa/Gaussia Luciferase. The experiment in a line: Dox-Induced PD1-ss-Gluc Assay. Type of data set: cell-based. To be noted: 24 hr Dox induction, 293FRT/TO cells, read-out: 24 hr Dox Inducible PD1ssGluc 293FRT/TO: Mean IC50. The gist of the method: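 Gaussia luciferase fused downstream of the PD1 signal peptide plus 10 residues was expressed on doxycycline induction in stably transfected Flp-In 293 T-REx cells. Compounds were added with doxycycline and incubated at 37 °C, 5% CO2.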

In data set [3] the test system is multiple myeloma cell line U266B1. The data set can be described thus: U266 Cell Viability Assay. Type of data set: cell-based, human. The following applies: Homo sapiens, U-266, 48 h, U266B1 cells, Celltiter-Glo. The essentials: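 Viability is measured as luciferase signal from CellTiter-Glo following a 48-hour incubation with compound at 37° C. under 5% CO2. Where structures lack drawn stereochemistry, values refer to stereoisomer mixtures.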

Data set [4] has as its system multiple myeloma cell line NCI-H929. The data set can be described thus: H929 Cell Viability Assay. It counts as cell-based, human. The following applies: NCI-H929 cells, Celltiter-Glo. The essentials:
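Viability is scored by CellTiter-Glo luminescence following a 48-hour treatment at 37° C. Data for structures shown without stereochemistry refer to stereoisomer mixtures.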

For data set [5], the system named is HER3-ss+4aa/Gaussia Luciferase. The experiment in a line: Dox-Induced Her3-ss-Gluc Assay. Type of data set: cell-based. To be noted: 24 hr Dox induction, 293FRT/TO cells, read-out: 24 hr Dox Inducible Her3(ss + 4)Gluc 293FRT/TO: Mean IC50. An excerpt:
Flp-In 293 T-REx™ cells were transfected with pcDNA™5/FRT/TO plasmid inserted with cDNA encoding Gaussia Luciferase fused to the 3′ end of cDNA encoding HER3 signal sequence plus 4 amino acids (N-[…]-C) (SEQ ID NO: 2). Transfected cells were selected for resistance to the selectable markers Hygromycin and Blasticidin to create a stable cell line that contained the HER3-ss+4aa/Gaussia Luciferase cDNA insert whose expression was regulated under the T-REx™ system. The day before assay, cells were trypsinized and plated in 384-well tissue culture plates. The next day, compound dilutions in DMSO/media containing doxycycline were added to the wells and incubated at 37° C., 5% CO2.
(§1) For chemical structures that include one or more stereoisomers, but are illustrated without indicating stereochemistry, the assay data refers to a mixture of stereoisomers.

Data set [6] relates to TNFα-FL/Gaussia Luciferase. The data set can be described thus: Dox Induced TNFα-FL-Gluc Assay. Type of data set: cell-based. To be noted: for IC50: 24 hr Dox induction, 293FRT/TO cells, read-out: 24 hr Dox Inducible TNFaFLGluc 293FRT/TO: Mean IC50; for 24 hr Dox Inducible TNFaFLGluc 293FRT/TO: TNF/PD1: ratio of TNFaFLGluc IC50 to PD1ssGluc IC50.
From the text: Flp-In 293 T-REx™ cells were transfected with pcDNA™5/FRT/TO plasmid inserted with cDNA encoding Gaussia Luciferase fused to the 3′ end of cDNA encoding full length TNFα (amino acids 1-233). Transfected cells were selected for resistance to the selectable markers Hygromycin and Blasticidin to create a stable cell line that contained the TNFα-FL/Gaussia Luciferase cDNA insert whose expression was regulated under the T-REx™ system. The day before assay, cells were trypsinized and plated in 384-well tissue culture plates. The next day, compound dilutions in DMSO/media containing doxycycline were added to the wells and incubated at 37° C., 5% CO2.
as §1

A short description of data set [7]: Liver Microsome Stability Assay (monkey). To be noted: monkey liver microsomes, with NADPH, 1.0 uM compound.
Description: (§2) Stability of a compound was assessed in the presence of liver microsomes from various sources—mouse, rat, monkey and human liver microsomes. 1.0 uM compound, 0.4% DMSO in 0.1 M Potassium Phosphate with 1.0 mg/mL liver microsomes, were incubated at 37° C. with or without 1 mM NADPH. The samples were quenched at 0, and 30 minutes.
Data set [8] in a line: Liver Microsome Stability Assay (mouse). The following applies: mouse liver microsomes, with NADPH, 1.0 uM compound.
Description: as §2
A short description of data set [9]: Liver Microsome Stability Assay (human). To be noted: human liver microsomes, with NADPH, 1.0 uM compound. In general terms: Microsomes from liver hold many membrane-bound enzymes, among them those of drug oxidation.
Description: as §2
Data set [10] in a line: Liver Microsome Stability Assay (rat). To be noted: rat liver microsomes, with NADPH, 1.0 uM compound.
Description: as §2
[11] abbreviates: '<=>' given where both are I.A.

As usually defined, the EC50 is the concentration giving half of the maximal effect.

The structures appear in SMILES notation. “And” between values parts separate entries of the source, which are not always exact repeats. Identical values can stand only once. Like-named read-outs stand apart in the source and are kept apart here.

In the case of `CS(=O)(=O)Nc1ccc(N2CCC[C@@H]2c2csc(NC(=O)c3cccn3Cc3ccnc(F)c3)n2)cc1` [Compound A118, (R)-1-((2-fluoropyridin-4-yl)methyl)-N-(4-(1-(4-(methylsulfonamido)phenyl)pyrrolidin-2-yl)thiazol-2-yl)-1H-pyrrole-2-carboxamide], the IC50 in [1] came to 0.129 µM; in [2], 0.103 µM; in data set [5], 0.135 µM; in data set [6], 0.888 µM. Further, in data set [1], the “24 hr Dox Inducible IL2FLGluc 293FRT/TO: IL2/PD1” value is 1.2. The EC50 was more than 25 µM in [3] and 1.8 µM in data set [4] (Homo sapiens, NCI-H929, 48 h). In data set [6], the “24 hr Dox Inducible TNFaFLGluc 293FRT/TO: TNF/PD1” value turned out to be 8.6.

For the compound `CNC(=O)Nc1ccc(N2CCC[C@@H]2c2csc(NC(=O)c3cccn3Cc3ccnc(F)c3)n2)cc1` [Compound A119, (R)-1-((2-fluoropyridin-4-yl)methyl)-N-(4-(1-(4-(3-methylureido)phenyl)pyrrolidin-2-yl)thiazol-2-yl)-1H-pyrrole-2-carboxamide], the IC50 is 0.00735 µM in data set [1], 0.00176 µM in data set [2], 0.00631 µM in data set [5] and 0.0413 µM in [6]. For the same compound, in data set [1], the “24 hr Dox Inducible IL2FLGluc 293FRT/TO: IL2/PD1” value was 4.2. Besides, the EC50 in [3] was more than 25 µM; in data set [4] (Homo sapiens, NCI-H929, 48 h) it was 0.133 µM. In data set [6], the “24 hr Dox Inducible TNFaFLGluc 293FRT/TO: TNF/PD1” value is 23.5.

Regarding `CC(C)Oc1ccc(N2CCC[C@@H]2c2csc(NC(=O)c3cccn3Cc3ccnc(F)c3)n2)cc1` [Compound A120, (R)-1-((2-fluoropyridin-4-yl)methyl)-N-(4-(1-(4-isopropoxyphenyl)pyrrolidin-2-yl)thiazol-2-yl)-1H-pyrrole-2-carboxamide], the IC50 in [1] stood at 0.0426 µM; in data set [2], 0.0245 µM; in data set [5] it was 0.0345 µM; in [6], 0.158 µM. Also, the “24 hr Dox Inducible IL2FLGluc 293FRT/TO: IL2/PD1” value in [1] was 1.7. In addition, the EC50 was more than 25 µM in data set [3] and 0.831 µM in data set [4] (Homo sapiens, NCI-H929, 48 h). Also, in data set [6], the “24 hr Dox Inducible TNFaFLGluc 293FRT/TO: TNF/PD1” value is on record as 6.44.

`CCc1cccc2nc(/C=C/c3csc(NC(=O)c4cccn4Cc4ccnc(F)c4)n3)cn12` [Compound B78, (E)-N-(4-(2-(5-ethylimidazo[1,2-a]pyridin-2-yl)vinyl)thiazol-2-yl)-1-((2-fluoropyridin-4-yl)methyl)-1H-pyrrole-2-carboxamide]: the IC50 was more than 25 µM in data set [1], 0.418 µM in [2], more than 25 µM in [5] and more than 25 µM in data set [6]. For the same compound, the “24 hr Dox Inducible IL2FLGluc 293FRT/TO: IL2/PD1” value in [1] is listed as more than 60. Also, the EC50 in data set [3] was more than 25 µM; in data set [4] (Homo sapiens, NCI-H929, 48 h), more than 25 µM. Besides, in data set [6], the “24 hr Dox Inducible TNFaFLGluc 293FRT/TO: TNF/PD1” value was more than 59.8.

Take `CCc1cccc2nc(/C=C/c3csc(NC(=O)c4cccn4Cc4ccncc4)n3)cn12` [Compound B79, (E)-N-(4-(2-(5-ethylimidazo[1,2-a]pyridin-2-yl)vinyl)thiazol-2-yl)-1-(pyridin-4-ylmethyl)-1H-pyrrole-2-carboxamide]: the IC50 in [1] was 4.34 µM; in [2], 0.416 µM; in data set [5] it was 3.58 µM; in [6], more than 25 µM. Also, the “24 hr Dox Inducible IL2FLGluc 293FRT/TO: IL2/PD1” value in data set [1] is recorded as 10. Further, the EC50 in data set [3] is more than 25 µM; in data set [4] (Homo sapiens, NCI-H929, 48 h), more than 25 µM. Also, the “24 hr Dox Inducible TNFaFLGluc 293FRT/TO: TNF/PD1” value in data set [6] is more than 60.1.

As for `Cc1cn(C(C)C)nc1/C=C/c1csc(NC(=O)c2cccn2Cc2ccncc2)n1` [Compound B80, (E)-N-(4-(2-(1-isopropyl-4-methyl-1H-pyrazol-3-yl)vinyl)thiazol-2-yl)-1-(pyridin-4-ylmethyl)-1H-pyrrole-2-carboxamide], the IC50 in data set [1] stood at 5.37 µM; in data set [2] it was 0.372 µM; in data set [5], 3.14 µM; in [6], 7.27 µM. For the same compound, the “24 hr Dox Inducible IL2FLGluc 293FRT/TO: IL2/PD1” value in data set [1] is on record as 14. The EC50 in data set [3] turned out to be 19 µM; in data set [4] (Homo sapiens, NCI-H929, 48 h) it was 16.2 µM. Further, in data set [6], the “24 hr Dox Inducible TNFaFLGluc 293FRT/TO: TNF/PD1” value is 19.5.

As to `Cc1cnn(C(C)C)c1/C=C/c1csc(NC(=O)c2cccn2Cc2ccnc(F)c2)n1` [Compound B84, (E)-1-((2-fluoropyridin-4-yl)methyl)-N-(4-(2-(1-isopropyl-4-methyl-1H-pyrazol-5-yl)vinyl)thiazol-2-yl)-1H-pyrrole-2-carboxamide], the IC50 in [1] turned out to be 2.17 µM; in [2] it was 0.905 µM; in data set [5], 2.02 µM; in data set [6] it was 1.67 µM. The “24 hr Dox Inducible IL2FLGluc 293FRT/TO: IL2/PD1” value in data set [1] stood at 2.4. Also, the “Liver Microsome Stability (Multiple Species): Monkey - % Remaining after 30 min w/NADPH” value in [7] was 5.77% and 6.74%. Further, the EC50 was found to be 19.1 µM in [3] and 6.85 µM in [4] (Homo sapiens, NCI-H929, 48 h). Also, in data set [8], the “Liver Microsome Stability (Multiple Species): Mouse - % Remaining after 30 min w/NADPH” value is 50.1% and 71.4%. Also, the “Liver Microsome Stability (Multiple Species): Human - % Remaining after 30 min w/NADPH” value in [9] is 10.6% and 16.9%. Besides, the “24 hr Dox Inducible TNFaFLGluc 293FRT/TO: TNF/PD1” value in [6] turned out to be 1.84.

`CO[C@H](CC#N)Cn1cccc1C(=O)Nc1nc([C@H]2CCCN2c2ccccc2)cs1` [Compound C108, 1-((R)-3-cyano-2-methoxypropyl)-N-(4-((R)-1-phenylpyrrolidin-2-yl)thiazol-2-yl)-1H-pyrrole-2-carboxamide]: the IC50 was 4.51 µM and 3.48 µM in data set [1] (mean); 2.4 µM and 1.59 µM in data set [2] (mean); 2.41 µM and 2.48 µM in data set [5] (mean); > 25 µM and 17.9 µM in [6] (mean). Moreover, the “24 hr Dox Inducible IL2FLGluc 293FRT/TO: IL2/PD1” value in [1] (setting [11]) is 1.9 and 2.2. In data set [10], the “Liver Microsome Stability (Multiple Species): Rat - % Remaining after 30 min w/NADPH” value was 3.87% and 7.05%. Moreover, the “Liver Microsome Stability (Multiple Species): Monkey - % Remaining after 30 min w/NADPH” value in data set [7] was 2.55% and 1.11%. In addition, the EC50 in data set [3] was more than 25 µM; in data set [4] (Homo sapiens, NCI-H929, 48 h) it was more than 23.8 µM; in data set [4] (48 hr) it was 20.3 µM. In addition, the “Liver Microsome Stability (Multiple Species): Human - % Remaining after 30 min w/NADPH” value in [9] was 8.71% and 7.07%. In [6] (setting [11]), the “24 hr Dox Inducible TNFaFLGluc 293FRT/TO: TNF/PD1” value was > 10.4 and 11.3.
